In patent US11976072B2, “Diacylglycerol kinase modulating compounds” (priority 2021, dated 2024):
Where two headings read alike, the source gives them in different places.

How the values were obtained:
[1] = tested on: Jurkat NFκB-luciferase cells; experiment: Jurkat NFκB-Luciferase Assay; format: cell-based; conditions: Homo sapiens
Method: The day after, the excess antibody was washed out five times with 100 ul/well of assay medium (RPMI supplemented with 10% fetal bovine serum) using a Biotek EL406 instrument and leaving 20 ul of residual volume in each well. Jurkat NFκB-luciferase cells (Promega #) were harvested and diluted to 1 million cells/ml in assay medium. […] Thirty microliters of medium containing the Jurkat NFκB-luciferase cells were then dispensed using a Biotek MicroFlo instrument in each well of the compound-containing plate. […] Forty microliters of One-Glo Ex (Promega) was then added to the assay mixture and luciferase activity was read on a Envision plate reader 7 minutes later.

human DGKα = human DGKα (Homo sapiens, UniProt P23743); experiment: DGKα Biochemical Activity Assay (ADP-Glo); conditions: recombinant DGKα 1 nM, 100 μM ATP, 18:1 DAG/POPS/octylglucoside micelles, 1 hour at 25° C.; geometric mean; read-out: HTBS DGKa 1X ATP KM IC50;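 further: luminescent detection of ADP produced as DGKα phosphorylates DAG to phosphatidic acid, IC50 from four-parameter nonlinear curve fit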
human DGKα, sequence (P23743 whole entry): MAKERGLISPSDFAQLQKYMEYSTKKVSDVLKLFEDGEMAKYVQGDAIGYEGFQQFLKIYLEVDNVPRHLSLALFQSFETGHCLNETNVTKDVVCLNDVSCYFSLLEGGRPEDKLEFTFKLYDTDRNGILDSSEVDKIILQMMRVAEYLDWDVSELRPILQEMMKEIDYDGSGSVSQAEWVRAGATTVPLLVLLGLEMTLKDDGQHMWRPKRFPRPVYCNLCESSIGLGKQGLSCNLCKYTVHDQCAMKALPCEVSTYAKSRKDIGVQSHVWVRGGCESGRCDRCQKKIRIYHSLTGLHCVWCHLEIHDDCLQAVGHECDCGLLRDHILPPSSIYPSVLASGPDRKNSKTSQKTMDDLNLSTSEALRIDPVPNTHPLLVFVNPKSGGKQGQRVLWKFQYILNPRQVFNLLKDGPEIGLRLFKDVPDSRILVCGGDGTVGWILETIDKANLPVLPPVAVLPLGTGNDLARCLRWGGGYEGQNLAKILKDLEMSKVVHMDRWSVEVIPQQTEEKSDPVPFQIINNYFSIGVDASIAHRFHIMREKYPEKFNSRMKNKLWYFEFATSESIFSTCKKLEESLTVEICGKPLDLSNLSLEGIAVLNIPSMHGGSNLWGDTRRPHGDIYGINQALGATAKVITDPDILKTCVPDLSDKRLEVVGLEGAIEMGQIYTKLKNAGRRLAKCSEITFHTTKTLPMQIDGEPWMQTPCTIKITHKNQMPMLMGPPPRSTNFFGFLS

[2] = Jurkat NFκB-luciferase cells activated with anti-CD3 antibody (OKT3), 2.5 hrs at 37° C., geometric mean, read-out: DGK NFKb Luciferase EC50
[3] = Jurkat, […], read-out: DGK NFKb Luciferase EC50 (nM)

Compound | EC50 [1, 2] [nM] | IC50 (human DGKα) [nM] | EC50 [1, 3] [nM]
Cc1nnc2nc(N3CCCc4c(C#CC(C)(C)C(=O)N5CCC(F)(F)CC5)cccc43)c3c(F)cccc3n12 [Example 69, 1-(4,4-difluoropiperidin-1-yl)-4-(1-(6-fluoro-1-methyl-[1,2,4]triazolo[4,3-a]quinazolin-5-yl)-1,2,3,4-tetrahydroquinolin-5-yl)-2,2-dimethylbut-3-yn-1-one] | 2.26 | 70.5 | 
Cc1nnc2nc(N(CC(F)F)c3cc(F)cc(C#CC4(O)CCC4)c3)c3c(F)c(F)ccc3n12 [Example 238, 1-[2-[3-[2,2-difluoroethyl-(6,7-difluoro-1-methyl-[1,2,4]triazolo[4,3-a]quinazolin-5-yl)amino]-5-fluoro-phenyl]ethynyl]cyclobutanol] | 24.5 | 7.08 | 
Cc1nnc2nc(N3CCOCc4c(C#CC5CC5)cccc43)c3cc(C#N)ccc3n12 [Example 108] | 2.84 | 4.69 | 
OC1(C#Cc2cccc3c2CCCN3c2nc3nncn3c3ccc(F)c(F)c23)CCCCC1 [Example 209, 1-[2-[1-(6,7-Difluoro-[1,2,4]triazolo[4,3-a]quinazolin-5-yl)-3,4-dihydro-2H-quinolin-5-yl]ethynyl]cyclohexanol] |  | 2.19 | 1.17
Cc1nnc2nc(N3CCOCc4c(C#Cc5ccnn5C)cccc43)c3c(F)cccc3n12 [Example 214, 1-(6-fluoro-1-methyl-[1,2,4]triazolo[4,3-a]quinazolin-5-yl)-6-((1-methyl-1H-pyrazol-5-yl)ethynyl)-1,2,3,5-tetrahydrobenzo[e][1,4]oxazepine] | 3.29 | 9.08 | 
CC(C)(C#Cc1cncc2c1CCCN2c1nc2nncn2c2ccc(F)c(F)c12)C(F)(F)F [Example 100, 6,7-difluoro-5-(5-(4,4,4-trifluoro-3,3-dimethylbut-1-yn-1-yl)-3,4-dihydro-1,7-naphthyridin-1(2H)-yl)-[1,2,4]triazolo[4,3-a]quinazoline] | 0.122 | 6.22 | 
Cc1nnc2nc(N3CCCc4c(C#CC(C)(C)C#N)cccc43)c3cc(F)ccc3n12 [Example 244, 4-[1-(7-fluoro-1-methyl-[1,2,4]triazolo[4,3-a]quinazolin-5-yl)-3,4-dihydro-2H-quinolin-5-yl]-2,2-dimethyl-but-3-ynenitrile] | 3.24 | 10.2 | 
Cc1nnc2nc(N3CCCCc4c(C#CC5(C(F)(F)F)CC5)cncc43)c3c(F)c(F)ccc3n12 [Example 9, 6,7-difluoro-1-methyl-5-(6-((1-(trifluoromethyl)cyclopropyl)ethynyl)-2,3,4,5-tetrahydro-1H-pyrido[3,4-b]azepin-1-yl)-[1,2,4]triazolo[4,3-a]quinazoline] | 1.53 | 28.5 | 
Cc1nnc2nc(N(CC(F)F)c3cccc(C#CC(C)(C)C(F)F)c3F)c3cc(F)ccc3n12 [Example 55, N-[3-(4,4-difluoro-3,3-dimethyl-but-1-ynyl)-2-fluoro-phenyl]-N-(2,2-difluoroethyl)-7-fluoro-1-methyl-[1,2,4]triazolo[4,3-a]quinazolin-5-amine] | 3.42 | 21.6 | 
Cc1nnc2nc(N3CCCc4c(N5CCC(C)(F)CC5)cccc43)c3c(F)cccc3n12 [Example 156, 6-fluoro-5-[5-(4-fluoro-4-methyl-1-piperidyl)-3,4-dihydro-2H-quinolin-1-yl]-1-methyl-[1,2,4]triazolo[4,3-a]quinazoline] | 1.02 | 40.2 | 
CC(C)(O)C#Cc1cccc2c1CCCN2c1nc2nncn2c2ccccc12 [Example 174, 2-methyl-4-[1-([1,2,4]triazolo[4,3-a]quinazolin-5-yl)-3,4-dihydro-2H-quinolin-5-yl]but-3-yn-2-ol] |  | 26.7 | 12
Cc1nnc2nc(N(CC(F)F)c3ccnc(C#CC(C)(C)C(F)(F)F)c3F)c3c(F)cccc3n12 [Example 43, N-(2,2-difluoroethyl)-6-fluoro-N-[3-fluoro-2-(4,4,4-trifluoro-3,3-dimethyl-but-1-ynyl)-4-pyridyl]-1-methyl-[1,2,4]triazolo[4,3-a]quinazolin-5-amine] | 1.22 | 9.97 | 
Cc1nc(C#Cc2cccc3c2CCCN3c2nc3nnc(C)n3c3ccc(F)cc23)cs1 [Example 231, 4-[2-[1-(7-fluoro-1-methyl-[1,2,4]triazolo[4,3-a]quinazolin-5-yl)-3,4-dihydro-2H-quinolin-5-yl]ethynyl]-2-methyl-thiazole] | 4.06 | 7.64 | 
Cc1nnc2nc(N3CCCc4c(C#CC5CC(F)(F)C5)cccc43)c3cc(F)ccc3n12 [Example 32, 5-(5-((3,3-difluorocyclobutyl)ethynyl)-3,4-dihydroquinolin-1(2H)-yl)-7-fluoro-1-methyl-[1,2,4]triazolo[4,3-a]quinazoline] | 0.461 | 11 | 
Cc1nnc2nc(N3CCCc4c(C#CC(C)(C)C(=O)N5CCOC(C)(C)C5)cccc43)c3c(F)cccc3n12 [Example 70, 1-(2,2-dimethylmorpholino)-4-(1-(6-fluoro-1-methyl-[1,2,4]triazolo[4,3-a]quinazolin-5-yl)-1,2,3,4-tetrahydroquinolin-5-yl)-2,2-dimethylbut-3-yn-1-one] | 5.62 | 29.2 | 
Cc1nnc2nc(N(CC(F)F)c3cc(F)cc(C#CC(C)(C)O)c3)c3c(F)cc(Cl)cc3n12 [Example 104, 4-(3-((8-chloro-6-fluoro-1-methyl-[1,2,4]triazolo[4,3-a]quinazolin-5-yl)(2,2-difluoroethyl)amino)-5-fluorophenyl)-2-methylbut-3-yn-2-ol] | 8.95 | 8.06 | 
CCC(C)(O)C#Cc1cc(F)cc(N(CC(F)F)c2nc3nnc(C)n3c3ccc(F)c(F)c23)c1 (stereo not drawn) [Example 241, 1-[3-[2,2-difluoroethyl-(6,7-difluoro-1-methyl-[1,2,4]triazolo[4,3-a]quinazolin-5-yl)amino]-5-fluoro-phenyl]-3-methyl-pent-1-yn-3-ol] | 29.5 | 38.6 | 
Cc1nnc2nc(N3CCCc4c(C#CC(C)(C)C#N)cccc43)c3c(Cl)c(F)ccc3n12 [Example 36, 4-[1-(6-chloro-7-fluoro-1-methyl-[1,2,4]triazolo[4,3-a]quinazolin-5-yl)-3,4-dihydro-2H-quinolin-5-yl]-2,2-dimethyl-but-3-ynenitrile] | 1.85 | 9.93 | 
Cc1nnc2nc(N3CCCCc4c(C#CC5(C)CC5)cncc43)c3c(F)c(F)ccc3n12 [Example 7, 6,7-difluoro-1-methyl-5-(6-((1-methylcyclopropyl)ethynyl)-2,3,4,5-tetrahydro-1H-pyrido[3,4-b]azepin-1-yl)-[1,2,4]triazolo[4,3-a]quinazoline] | 0.747 | 23.1 | 
Cc1nnc2nc(N3CCCOc4c(C#CC5(C(C)(F)F)CC5)cccc43)c3c(F)c(F)ccc3n12 [Example 115] | 2.37 | 32.8 | 
Cc1nnc2nc(N(CC(F)F)c3cccc(C#CC4(C)CC4)c3F)c3cc(F)ccc3n12 [Example 56, N-(2,2-difluoroethyl)-7-fluoro-N-[2-fluoro-3-[2-(1-methylcyclopropyl)ethynyl]phenyl]-1-methyl-[1,2,4]triazolo[4,3-a]quinazolin-5-amine] | 0.805 | 13.5 | 
CC(C)(C#Cc1cccc(N(CC(F)F)c2nc3nncn3c3ccc(F)cc23)c1F)C(F)F [Example 57, N-[3-(4,4-difluoro-3,3-dimethyl-but-1-ynyl)-2-fluoro-phenyl]-N-(2,2-difluoroethyl)-7-fluoro-[1,2,4]triazolo[4,3-a]quinazolin-5-amine] | 0.669 | 46.2 | 
Cc1nnc2nc(N3CCCc4c(C#CC5(C(F)F)CC5)cncc43)c3c(F)c(F)ccc3n12 [Example 11, 5-(5-((1-(difluoromethyl)cyclopropyl)ethynyl)-3,4-dihydro-1,7-naphthyridin-1(2H)-yl)-6,7-difluoro-1-methyl-[1,2,4]triazolo[4,3-a]quinazoline] | 5.77 | 13.9 | 
Cc1nnc2nc(N3CCOCc4c(C#CC(C)(C)NC(=O)C(C)(C)C(C)(F)F)cccc43)c3c(F)cccc3n12 [Example 180, 3,3-Difluoro-N-[3-[1-(6-fluoro-1-methyl-[1,2,4]triazolo[4,3-a]quinazolin-5-yl)-3,5-dihydro-2H-4,1-benzoxazepin-6-yl]-1,1-dimethyl-prop-2-ynyl]-2,2-dimethyl-butanamide] | 13.5 | 5.12 | 
Cc1nnc2nc(N3CCOCc4c3ccnc4C#CC3(C)CC3)c3cc(F)ccc3n12 [Example 132, 1-(7-fluoro-1-methyl-[1,2,4]triazolo[4,3-a]quinazolin-5-yl)-6-((1-methylcyclopropyl)ethynyl)-1,2,3,5-tetrahydropyrido[4,3-e][1,4]oxazepine] | 6.64 | 3.1 | 
Cc1nnc2nc(N3CCN(C)Cc4c(C#CC(C)(C)C(F)(F)F)cccc43)c3cc(F)ccc3n12 [Example 171, 7-fluoro-1-methyl-5-[4-methyl-6-(4,4,4-trifluoro-3,3-dimethyl-but-1-ynyl)-3,5-dihydro-2H-1,4-benzodiazepin-1-yl]-[1,2,4]triazolo[4,3-a]quinazoline] | 7.36 | 14.8 | 
Cc1nnc2nc(N3CCN(C)Cc4c(C#CC5(C)CC5)cccc43)c3c(F)cccc3n12 [Example 165, 6-fluoro-1-methyl-5-[4-methyl-6-[2-(1-methylcyclopropyl)ethynyl]-3,5-dihydro-2H-1,4-benzodiazepin-1-yl]-[1,2,4]triazolo[4,3-a]quinazoline] | 5.35 | 7.6 | 
